Reference: patent US7803795B2, “Phthalazine derivatives as parp inhibitors” (Janssen Pharmaceutica N.V., priority 2004, dated 2010)

target: T1, PARP-1 enzyme (Homo sapiens, UniProt P09874); test: in vitro Scintillation Proximity Assay (SPA) for PARP-1 inhibitory activity; assay type: biochemical; conditions: [3H]-NAD+, biotinylated histones, nicked DNA; dose-response 10^-5 M to 10^-8 M; read-out: in vitro SPA assay PARP-1 pIC50 (converted)
T1 construct: made in house
Protocol: In vitro Scintillation Proximity Assay (SPA) for PARP-1 Inhibitory Activity
Compounds of the present invention were tested in an in vitro assay based on SPA technology (proprietary to Amersham Pharmacia Biotech).
In principle, the assay relies upon the well established SPA technology for the detection of poly(ADP-ribosylation of biotinylated target proteins, i.e histones. This ribosylation is induced using nicked DNA activated PARP-1 enzyme and [^3H]-nicotinamide adenine dinucleotide ([^3H]-NAD^+) as ADP-ribosyl donor.
As inducer of PARP-1 enzyme activity, nicked DNA was prepared. For this, 25 mg of DNA (supplier: Sigma) was dissolved in 25 ml DNAse buffer (10 mM Tris-HCl, pH 7.4; 0.5 mg/ml Bovine Serum Albumine (BSA); 5 mM MgCl2.6H2O and 1 mM KCl) to which 50 Al DNAse solution (1 mg/ml in 0.15 M NaCl) was added. After an incubation of 90 min. at 37° C., the reaction was terminated by adding 1.45 g NaCl, followed by a further incubation at 58° C. for 15 min. The reaction mixture was cooled on ice and dialysed at 4° C. for respectively 1.5 and 2 hours against 1.51 of 0.2 M KCl, and twice against 1.51 of 0.01 M KCl for 1.5 and 2 h respectively. The mixture was aliquoted and stored at −20° C. Histones (1 mg/ml, type II-A, supplier: Sigma) were biotinylated using the biotinylation kit of Amersham and stored aliquoted at −20° C. A stock solution of 100 mg/ml SPA poly(vinyl toluene) (PVT) beads (supplier: Amersham) was made in PBS. A stock solution of [^3H]-NAD^+ was made by adding 120 μl of [^3H]-NAD^+ (0.1 mCi/ml, supplier: NEN) to 6 ml incubation buffer (50 mM Tris/HCl, pH 8; 0.2 mM DTT; 4 mM MgCl2). A solution of 4 mM NAD^+ (supplier: Roche) was made in incubation buffer (from a 100 mM stock solution in water stored at −20° C.). The PARP-1 enzyme was produced using art known techniques, i.e. cloning and expression of the protein starting from human liver cDNA. Information concerning the used protein sequence of the PARP-1 enzyme including literature references can be found in the Swiss-Prot database under primary accession number P09874. Biotinylated histones and PVT-SPA beads were mixed and pre-incubated for 30 min. at room temperature. PARP-1 enzyme (concentration was lot dependent) was mixed with the nicked DNA and the mixture was pre-incubated for 30 min. at 4° C. Equal parts of this histones/PVT-SPA beads solution and PARP-1 enzyme/DNA solution were mixed and 75 μl of this mixture together with 1 μl of compound in DMSO and 25 μl of [^3H]-NAD^+ was added per well into a 96-well microtiterplate. The final concentrations in the incubation mixture were 2 μg/ml for the biotinylated histones, 2 mg/ml for the PVT-SPA beads, 2 μg/ml for the nicked DNA and between 5-10 μg/ml for the PARP-1 enzyme. After incubation of the mixture for 15 min. at room temperature, the reaction was terminated by adding 100 μl of 4 mM NAD^+ in incubation buffer (final concentration 2 mM) and plates were mixed.
The beads were allowed to sediment for at least 15 min. and plates transferred to a TopCountNXT™ (Packard) for scintillation counting, values were expressed as counts per minute (cpm). For each experiment, controls (containing PARP-1 enzyme and DMSO without compound), a blank incubation (containing DMSO but no PARP-1 enzyme or compound) and samples (containing PARP-1 enzyme and compound dissolved in DMSO) were run in parallel. All compounds tested were dissolved and eventually further diluted in DMSO. […] In each test, the blank value was subtracted from both the control and the sample values. The control sample represented maximal PARP-1 enzyme activity. For each sample, the amount of cpm was expressed as a percentage of the mean cpm value of the controls. When appropriate, IC50-values (concentration of the drug, needed to reduce the PARP-1 enzyme activity to 50% of the control) were computed using linear interpolation between the experimental points just above and below the 50% level. […]

T1 sequence (P09874 whole entry): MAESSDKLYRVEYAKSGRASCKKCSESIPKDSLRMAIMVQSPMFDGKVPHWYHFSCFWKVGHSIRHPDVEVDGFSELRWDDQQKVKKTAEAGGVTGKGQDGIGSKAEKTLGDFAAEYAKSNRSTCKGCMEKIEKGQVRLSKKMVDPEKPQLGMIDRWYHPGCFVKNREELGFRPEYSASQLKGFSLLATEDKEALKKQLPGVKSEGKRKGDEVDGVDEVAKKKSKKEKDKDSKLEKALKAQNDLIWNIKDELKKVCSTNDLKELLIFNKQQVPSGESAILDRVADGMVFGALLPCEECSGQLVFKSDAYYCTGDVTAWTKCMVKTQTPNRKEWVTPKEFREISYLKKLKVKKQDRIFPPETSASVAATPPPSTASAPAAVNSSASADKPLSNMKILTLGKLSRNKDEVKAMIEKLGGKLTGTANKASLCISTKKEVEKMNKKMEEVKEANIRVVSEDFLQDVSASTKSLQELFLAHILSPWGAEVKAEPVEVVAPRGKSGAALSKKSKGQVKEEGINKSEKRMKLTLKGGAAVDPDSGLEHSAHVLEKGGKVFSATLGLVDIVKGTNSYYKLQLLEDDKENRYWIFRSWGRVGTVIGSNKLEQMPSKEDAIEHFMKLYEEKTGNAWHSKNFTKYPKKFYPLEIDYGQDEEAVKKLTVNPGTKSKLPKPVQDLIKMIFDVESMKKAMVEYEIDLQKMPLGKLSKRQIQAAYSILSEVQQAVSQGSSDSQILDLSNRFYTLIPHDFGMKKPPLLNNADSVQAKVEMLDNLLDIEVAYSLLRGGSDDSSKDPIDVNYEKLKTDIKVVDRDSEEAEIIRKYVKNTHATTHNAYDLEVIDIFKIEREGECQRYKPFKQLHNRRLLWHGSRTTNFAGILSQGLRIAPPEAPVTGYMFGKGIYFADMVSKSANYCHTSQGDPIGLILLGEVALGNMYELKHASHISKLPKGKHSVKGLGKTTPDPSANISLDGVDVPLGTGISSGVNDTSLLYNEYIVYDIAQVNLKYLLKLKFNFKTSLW

Row | SMILES | IC50
1 | Cc1nnc(N2CCN(CCn3c(=O)[nH]c4ccccc43)CC2)c2ccccc12 [Compound 71] | 7.41 µM
2 | O=c1[nH]nc(C2CCN(c3ncccn3)CC2)c2ccccc12 [Compound 69] | 2.15 µM
3 | Cc1nnc(N2CCN(CCCC(c3ccc(F)cc3)c3ccc(F)cc3)CC2)c2ccccc12 [Compound 29] | 1.78 µM
4 | O=c1[nH]nc(NC2CCCN(CCCC(c3ccc(F)cc3)c3ccc(F)cc3)CC2)c2ccccc12 (centres unmarked) [Compound 30] | 0.442 µM
5 | CCOC(=O)N1CCCC(Nc2n[nH]c(=O)c3ccccc23)CC1 (centres unmarked) [Compound 50] | 2.51 µM
6 | O=c1[nH]nc(NC2CCN(C/C=C/c3ccccc3)CC2)c2ccccc12 [Compound 65] | 0.851 µM
7 | O=c1[nH]nc(C2CCN(CCCCOc3ccccc3)CC2)c2ccccc12 [Compound 68] | 0.274 µM
8 | O=c1[nH]nc(N[C@@H]2C[C@H]3CC[C@@H](C2)N3CCCC(c2ccc(F)cc2)c2ccc(F)cc2)c2ccccc12 [Compound 3] | 0.43 µM
9 | Cc1nc2n(c(=O)c1CCN1CCN(c3nnc(C)c4ccccc34)CC1)CCCS2 [Compound 76] | 3.63 µM
10 | CCOC(=O)N1CCN(c2nnc(Cl)c3ccccc23)CC1 [Compound 58] | 10 µM
11 | Clc1nnc(NC2CCN(CCCCOc3ccccc3)CC2)c2ccccc12 [Compound 59] | 3.3 µM
12 | O=c1[nH]nc(N[C@@H]2C[C@H]3CC[C@@H](C2)N3)c2ccccc12 [Compound 15] | 0.139 µM
13 | Fc1ccc(C(CCCN2CCN(c3nnc(Cl)c4ccccc34)CC2)c2ccc(F)cc2)cc1 [Compound 57] | 1.97 µM
14 | CCOC(=O)N1CCC(Nc2n[nH]c(=O)c3ccccc23)C1 (centres unmarked) [Compound 48] | 3.07 µM
15 | Cc1nc2scc(C)n2c(=O)c1CCN1CCN(c2nnc(C)c3ccccc23)CC1 [Compound 74] | 3.21 µM
16 | O=c1[nH]nc(C2CCN(Cc3ccccc3)CC2)c2ccccc12 [Compound 1] | 0.284 µM
17 | O=c1[nH]nc(NC2CCCNCC2)c2ccccc12 (centres unmarked) [Compound 34] | 0.12 µM
18 | CN(c1nc2ccccc2s1)C1CCN(c2nnc(Cl)c3ccccc23)CC1 [Compound 61] | 1.29 µM
19 | O=c1[nH]nc(NC2CCN(C[C@@H](O)[C@@H]3CCc4ccccc4O3)CC2)c2ccccc12 (relative stereo) [Compound 27] | 0.857 µM
20 | Clc1nnc(NC2CCN(Cc3ccccc3)C2)c2ccccc12 (centres unmarked) [Compound 12] | 1.14 µM
21 | O=c1[nH]nc(N2CCC(c3cccc(C(F)(F)F)c3)C2)c2ccccc12 (centres unmarked) [Compound 55] | 1.65 µM

Row | SMILES | IC50
22 | CCOC(=O)N1CCC(c2n[nH]c(=O)c3ccccc23)CC1 [Compound 25] | 2.99 µM
23 | CCOC(=O)N1CCC(Nc2n[nH]c(=O)c3ccccc23)CC1 [Compound 56] | 5.64 µM
24 | O=c1[nH]nc(C2CCN(C/C=C/c3ccccc3)CC2)c2ccccc12 [Compound 66] | 0.767 µM
25 | Cc1nc2sccn2c(=O)c1CCN1CCN(c2nnc(C)c3ccccc23)CC1 [Compound 73] | 1.9 µM
26 | Cc1nc2n(c(=O)c1CCN1CCN(c3nnc(C)c4ccccc34)CC1)CCS2 [Compound 75] | 4.24 µM
27 | Clc1nnc(N2CCN(c3ccccc3)CC2)c2ccccc12 [Compound 77] | 1.32 µM
28 | CCOC(=O)N1[C@@H]2CC[C@H]1C[C@H](Nc1n[nH]c(=O)c3ccccc13)C2 [Compound 11] | 0.0867 µM
29 | O=c1[nH]nc(C2CCN(CCCC(c3ccc(F)cc3)c3ccc(F)cc3)CC2)c2ccccc12 [Compound 67] | 0.303 µM
30 | COc1ccc(CCN2CCC(Nc3n[nH]c(=O)c4ccccc34)CC2)cc1 [Compound 63] | 0.684 µM
31 | O=c1[nH]nc(N2CCN(CCCC(c3ccc(F)cc3)c3ccc(F)cc3)CC2)c2ccccc12 [Compound 52] | 0.435 µM
32 | CCOC(=O)N1[C@@H]2CC[C@H]1C[C@H](Nc1nnc(Cl)c3ccccc13)C2 [Compound 24] | 0.973 µM
33 | O=c1[nH]nc(C2CCN(CCCOc3ccc(F)cc3)CC2)c2ccccc12 [Compound 13] | 0.0755 µM
34 | O=c1[nH]nc(NCC2CCCN(Cc3ccccc3)C2)c2ccccc12 (centres unmarked) [Compound 44] | 1.12 µM
35 | O=c1[nH]nc(C2CCNCC2)c2ccccc12 [Compound 4] | 0.251 µM
36 | O=c1[nH]nc(NC2CCCN(Cc3ccccc3)C2)c2ccccc12 (centres unmarked) [Compound 53] | 1.07 µM
37 | O=c1[nH]nc(NC2CCN(Cc3ccccc3)C2)c2ccccc12 (centres unmarked) [Compound 51] | 0.432 µM
38 | Cc1nc2ccccn2c(=O)c1CCN1CCN(c2nnc(C)c3ccccc23)CC1 [Compound 72] | 8.97 µM
39 | O=c1[nH]nc(NC2CCN(CCCCOc3ccccc3)CC2)c2ccccc12 [Compound 46] | 0.843 µM
40 | Cc1nnc(N2CCN(CCn3c(=O)[nH]c4ccccc4c3=O)CC2)c2ccccc12 [Compound 70] | 3.44 µM
41 | O=c1[nH]nc(NCC2CCCN(CCCC(c3ccc(F)cc3)c3ccc(F)cc3)C2)c2ccccc12 (centres unmarked) [Compound 49] | 3.82 µM
